Test results taken from patent US20240059738A1, “SWITCHING PEPTIDE AND MULTIPLEX IMMUNOASSAY METHOD USING SAME” (OPTOLANE TECHNOLOGIES INC., priority 2021, published 2024).

Experiments:
[1] = Net charge of switching peptides at pH 6.0 to 8.0; type: physicochemical; conditions: pH 6.0 to 7.0; histidine residue pKa 6.02
Procedure: (§1) Regarding the antibody binding properties of the switching peptides at pH 6.0 to 8.0, a net charge of H1 and L2 peptides decreased to 0.5 at pH 6.0 to 7.0 due to a histidine residue with a pKa value of 6.02. In addition, the net charge of the H2 and L2 peptides decreased to 0.5 at pH 7.0 to 8.0 due to a cysteine residue with a pKa value of 8.18. […] Therefore, the immunoassay was performed by selecting an L1 peptide having specific dissociation from hepatitis B surface antigen-antibody binding and stability within a pH range of human serum immunoassay.

[2] = test system: Anti-hCG antibody(m); assay: Antigen-induced release of fluorescently labeled peptide from immobilized antibody (Table 2), hCG antigen; type: binding; conditions: anti-hCG antibody (mouse)
[3] = test system: Anti-HBsAg antibody(g); assay: Antigen-induced release of fluorescently labeled peptide from immobilized antibody (Table 2), HBsAg antigen; type: binding, goat; conditions: for fluorescence intensity remaining at bottom of plate after antigen (% of before): anti-HBsAg antibodies from goats
[4] = test system: anti-HRP antibody from a rabbit; assay: One-step immunoassay with varying HRP concentration (FIGS. 7A-7C); type: binding; conditions: HRP 0.3 to 100 μM; for Kd: estimated, read-out: Equilibrium dissociation constants
Description: FIG. 7A is a schematic diagram for explaining an immunoassay method using fluorescently labeled peptide compounds of Example 1, and FIGS. 7B and 7C are graphs illustrating the fluorescence intensities in a solution and at a bottom of the microplate depending on a concentration of the antigen measured by the immunoassay method illustrated in FIG. 7A. In this experiment, an anti-HRP antibody from a rabbit immobilized on a microplate was used as the binding antibody and HRP was used as the antigen.

[5] = test system: Anti-CRP antibody(r); assay: Antigen-induced release of fluorescently labeled peptide from immobilized antibody (Table 2), CRP antigen; type: binding; conditions: anti-CRP antibody (rabbit)
[6] = test system: Anti-HRP antibody(r); assay: Antigen-induced release of fluorescently labeled peptide from immobilized antibody (Table 2), HRP antigen; type: binding, rabbit; conditions: for remaining fluorescence intensity at plate bottom after antigen binding (% of before): anti-HRP antibodies from rabbits; for Bottom (B) of microplate Change (%) / fluorescence intensity Bottom (B) of microplate After antigen binding / fluorescence intensity Bottom (B) of microplate Before antigen binding / fluorescence intensity In solution (S) After antigen binding / fluorescence intensity In solution (S) Before antigen binding: anti-HRP antibody (rabbit), HRP
[7] = test system: L2 peptide; assay: FRET interaction between H1 and L2 peptides on microplate; type: binding; conditions: with increasing concentration of H1 peptide; FAM/TAMRA labels
Description: (§2) FIG. 4A is diagrams illustrating a method for confirming a specific interaction between L1 and H2 peptides and a specific interaction between L2 and H1 peptides and the measurement results thereof, and FIG. 4B is diagrams for explaining a specific interaction between L1 and H2 peptides and a specific interaction between L2 and H1 peptides analyzed using PyMOL software. Here, at the ends of the L1 and L2 peptides, a first fluorescent label, FAM (λex=488 nm, λem=532 nm) was modified, and at the ends of the H1 and H2 peptides, a second fluorescent label, TAMRA λex=532 nm, λem=570 nm) was modified. Meanwhile, the first peptide (L1 or L2) was immobilized on a parylene-H-coated microplate through a covalent bond between a formyl group of parylene-H and a primary amine group of a lysine residue in the peptide, and the second peptide (H2 or H1) was incubated with the immobilized first peptide (L1 or L2) to allow specific interactions between them.

[8] = test system: rabbit anti-HRP antibodies (Fab region); assay: Papain treatment of immobilized antibody with bound fluorescently labeled switching peptide (FIG. 6B); type: binding; conditions: after papain treatment compared to before
Description: FIG. 6A is a schematic diagram illustrating states before and after treatment of the antibody to which the four types of peptides of Example 1 were bound, respectively, with papain, which is a protease, and FIG. 6B is graphs illustrating a fluorescence intensity measured at a bottom (B) of the microplate and in a solution (S) after the papain treatment. In the case of this experiment, after immobilization of the antibodies (rabbit anti-HRP antibodies) on the microplate, binding between the antibody and the switching peptide was induced by treatment with a fluorescently labeled switching peptide, the unbound switching peptide was removed, and then the Fab region was hydrolyzed from the immobilized antibodies by adding papain, which is a protease.
Referring to FIG. 6A, the fluorescence at the bottom (B) of the microplate is expected to decrease after the papain reaction because the fluorescently labeled switching peptides are bound to the Fab region of antibodies, and the fluorescence in the solution is expected to increase because the Fab region to which the switching peptide is bound is hydrolyzed and dissolved into the solution. This prediction is proven to be true from the graphs of FIG. 6B.

[9] = test system: hepatitis B surface antigen-antibody; assay: Antibody binding properties (fluorescence signal) of switching peptides at pH 6.0 to 8.0
Procedure: as §1

[10] = test system: H2 peptide; assay: FRET interaction between L1 and H2 peptides on microplate; type: binding; conditions: with increasing concentration of L1 peptide; FAM/TAMRA labels
Chain of H2 peptide (as listed by the source): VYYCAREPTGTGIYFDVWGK
Description: as §2
Referring to FIG. 4A, the interaction between the L1 and H2 peptides was observed by changing the concentration of the L1 peptide, and the FRET intensity increased with increasing the concentration of the L1 peptide.

[11] = test system: HRP, CRP, HBsAg, and hCG
Procedure: After immobilizing the hepatitis B surface antigen (HBsAg)-antibody detected using the immunoassay of the peptide compounds of Example 1 on a microplate, L1 peptide was added, and 0.04 to 30 μg/ml of the hepatitis B surface antigen was treated.

[12] = anti-HBsAg antibody (goat), HBsAg

Sequence	Bottom (B) of microplate Change (%) [2]	In solution (S) Change (%) [2]	fluorescence intensity Bottom (B) of microplate After antigen binding [2]	fluorescence intensity Bottom (B) of microplate Before antigen binding [2]	fluorescence intensity In solution (S) After antigen binding [2]	fluorescence intensity In solution (S) Before antigen binding [2]	fluorescence intensity remaining at bottom of plate after antigen (% of before) [3]	Bottom (B) of microplate Change (%) [3, 12]	fluorescence intensity Bottom (B) of microplate After antigen binding [3, 12]	fluorescence intensity Bottom (B) of microplate Before antigen binding [3, 12]	fluorescence intensity In solution (S) After antigen binding [3, 12]	fluorescence intensity in the solution depending on the concentration of the antigen (HRP) [4]	Kd [4]	Bottom (B) of microplate Change (%) [5]	In solution (S) Change (%) [5]	fluorescence intensity Bottom (B) of microplate After antigen binding [5]	fluorescence intensity Bottom (B) of microplate Before antigen binding [5]	fluorescence intensity In solution (S) After antigen binding [5]	fluorescence intensity In solution (S) Before antigen binding [5]	remaining fluorescence intensity at plate bottom after antigen binding (% of before) [6]	also measured
SYWIHWVKQRPGQGLEWIGE [H1, SYWIH WVKQR PGQGL EWIGE]	−65.6%	+206%	1940	5646	3921	1281	41.1%	−58.9%	4618	11225	11453	increase	1650 nM	−26.8%	+152%	3595	4912	5659	2242	12.3%	net charge [1]: 0.5; Bottom (B) of microplate Change (%) [6]: −87.7%; fluorescence intensity Bottom (B) of microplate After antigen binding [6]: 1451; fluorescence intensity Bottom (B) of microplate Before antigen binding [6]: 11840; fluorescence intensity In solution (S) After antigen binding [6]: 21965; fluorescence intensity In solution (S) Before antigen binding [6]: 2596; FRET intensity [7]: increase; decrease of fluorescence intensity at the bottom of the microplate [8]: 84.3%; increase of fluorescence intensity in the solution [8]: 2,184%
TYLEWYPQKPGQSPKLLIYK [L1, TYLEW YPQKP GQSPK LLIYK]	−61.6%	+187%	1777	4630	3580	1248	48.7%	−51.3%	5388	11062	20501	increase	3290 nM	−48.6%	+778%	3456	6719	6505	741	12.7%	fluorescence signal in pH range required for immunoassay of HBsAg in human serum [9]: almost the same fluorescence signal; fluorescence intensity In solution (S) Before antigen binding [3, 12]: 2779; Bottom (B) of microplate Change (%) [6]: −87.3%; fluorescence intensity Bottom (B) of microplate After antigen binding [6]: 1990; fluorescence intensity Bottom (B) of microplate Before antigen binding [6]: 15608; fluorescence intensity In solution (S) After antigen binding [6]: 12280; fluorescence intensity In solution (S) Before antigen binding [6]: 2687; FRET intensity [10]: increased; decrease of fluorescence intensity at the bottom of the microplate [8]: 84.8%; increase of fluorescence intensity in the solution [8]: 1,032%; selectivity among the four antigens [11]: highest selectivity
